From US7504400B2, “MTP inhibiting aryl piperydines or piperazines substituted with 5-membered heterocycles” (Janssen Pharmaceutica N.V., priority 2004, dated 2009) come the findings set out here.

SMILES strings stand for the structures. Structures can show the parent of a compound that is named as a salt.

Tested on in one series: not given
Experiment: not given
Conditions: not given
The compound `CCCN(CCC)C(=O)C(CCN1CCN(c2ccc(-n3cnn(C(C)C)c3=O)cc2)CC1)c1ccccc1` (stereo not drawn) (as salt: salt) [Compound 2] returned a melting point of 165 °C. On the same count and under the same terms, with `CCOC(=O)C(c1cccnc1)N1CCN(c2ccc(-n3cnn(C(C)C)c3=O)cc2)CC1` (stereo not drawn) [Compound 302] the figure was 142 to 143 °C; with `CC(C)n1ncn(-c2ccc(N3CCN(C(C(=O)Nc4ccc5c(c4)CCC5)c4cccnc4)CC3)cc2)c1=O` (stereo not drawn) [Compound 209], 198 to 200 °C.

A further series concerns Secretion of ApoB. The series is described as follows: Quantification of the secretion of ApoB in HepG2 cells. Particulars: Homo sapiens, HepG2, 24 h, 24 hours of incubation with test compound, immunoprecipitation of apoB from medium, read-out: pIC50 value (=-log IC50 value), secretion of ApoB (converted). In kind it is cell-based. Put shortly: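 At 70% confluency, HepG2 cells in MEM with 10% FCS received compound or DMSO carrier (0.4% final) for 24 h. Secreted apoB in cleared medium immunoprecipitated with sheep anti-apoB then rabbit anti-sheep antibody (24 h each, 8° C); pellet radioactivity counted by liquid scintillation; IC50 expressed as pIC50.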
In the case of `CC(C)n1ncn(-c2ccc(N3CCN(C(C(=O)Nc4ccc5c(c4)CCC5)c4cccnc4)CC3)cc2)c1=O` (stereo not drawn) [Compound 209], the IC50 is 31.6 to 316 nM. On the same count and under the same terms, in the case of `CCOC(=O)[C@H](c1ccccc1)N1CCN(c2ccc(-n3cnn([C@@H](C)c4ccccc4)c3=O)cc2)CC1` (stereo in doubt) [Compound 304] it was 31.6 to 316 nM; in that of `COC(=O)c1ccc(CNC(=O)C(c2ccccc2)N2CCN(c3ccc(-n4cnn(C(C)C)c4=O)cc3)CC2)cc1` (stereo not drawn) [Compound 196], 316 to 3160 nM; in that of `COC(=O)C(c1ccccc1)N1CCN(c2ccc(-n3nc(-c4ccccc4)n(-c4ccccc4)c3=O)cc2)CC1` (stereo not drawn) [Compound 29], 316 to 3160 nM.

For the compound `CCNC(=O)C(c1ccccc1)(c1ccccc1)N1CCN(c2ccc(-n3cnn(C(C)C)c3=O)cc2)CC1` [Compound 133], the IC50 is 316 to 3160 nM. Same read-out and setting: in the case of `CCOC(=O)CNC(=O)C(c1ccccc1)N1CCN(c2ccc(-n3cnn(C(C)C)c3=O)cc2)CC1` (stereo not drawn) [Compound 66] it was 31.6 to 316 nM; in that of `CCOC(=O)c1ccc(CNC(=O)CC2CCN(c3ccc(-n4cnn(C(C)C)c4=O)cc3)CC2)cc1C` [Compound 378], 31.6 to 316 nM. The same measure, in the same setting: with `CCOC(=O)C(c1ccccc1)C1CCN(c2ccc(-n3ccn([C@H](C)c4ccc(F)cc4)c3=O)cc2)CC1` (stereo partly drawn) [Compound 244] the figure was 31.6 to 316 nM; with `CCOC(=O)C(c1ccccc1)C1CCN(c2ccc(-n3ccn([C@@H](C)C4CCCCC4)c3=O)cc2)CC1` (stereo partly drawn) [Compound 261], 31.6 to 316 nM. The same measure, in the same setting: with `CC(C)n1ncn(-c2ccc(N3CCN(CC(C(=O)NCC(F)(F)F)c4ccccc4)CC3)cc2)c1=O` (stereo not drawn) [Compound 98] the figure was 31.6 to 316 nM; with `CCOC(=O)c1cc(CNC(=O)C(c2ccccc2)C2CCN(c3ccc(-n4cnn(C(C)c5ccccc5)c4=O)cc3)CC2)ccc1C` (stereo not drawn) [Compound 381], less than 31.6 nM.

For `COC(=O)c1cc(NC(=O)C(c2ccccc2)N2CCN(c3ccc(-n4cnn(C(C)c5ccccc5)c4=O)cc3)CC2)ccc1C` (stereo not drawn) [Compound 283], the IC50 was less than 31.6 nM. Still for that read-out and setting: in the case of `CCOC(=O)[C@@H](c1ccccc1)N1CCN(c2ccc(-n3cnn([C@H](C)c4ccccc4)c3=O)cc2)CC1` (stereo in doubt) [Compound 280] it was 316 to 3160 nM; in that of `CCCNC(=O)C(c1ccccc1)N1CCN(c2ccc(-n3cnn(C(C)C)c3=O)cn2)CC1` (stereo not drawn) [Compound 47], 316 to 3160 nM; in that of `COC(=O)c1ccc2nc(NC(=O)C(c3ccccc3)N3CCC(c4ccc(-n5cnn(C(C)C)c5=O)cc4)CC3)sc2c1` (stereo not drawn) [Compound 354], 316 to 3160 nM. For the compound `CCOC(=O)C(CN1CCN(c2ccc(-n3cnn(C(C)C)c3=O)cc2)CC1)c1ccccc1` (stereo not drawn) [Compound 138], the IC50 was 316 to 3160 nM. Consider `CC(C)n1ncn(-c2ccc(N3CCC(CC(=O)Nc4ccc5c(c4)CCC5)CC3)cc2)c1=O` [Compound 213], for which the IC50 was 316 to 3160 nM.

As to `CCC(C)n1nc(C)n(-c2ccc(N3CCC(C(C(=O)Nc4ccc5c(c4)CCC5)c4ccccc4)CC3)cc2)c1=O` (stereo not drawn) [Compound 207], the IC50 is less than 31.6 nM. The same measure, in the same setting: in the case of `CC(C)n1ncn(-c2ccc(N3CCN(CC(C(=O)NC4CC4)c4ccccc4)CC3)cc2)c1=O` (stereo not drawn) [Compound 104] it was 316 to 3160 nM; in that of `CCOC(=O)[C@H](c1ccccc1)N1CCN(c2ccc(-n3ccn(C(C)c4cccc(F)c4)c3=O)cc2)CC1` (stereo in doubt) [Compound 337], 31.6 to 316 nM. The same measure, in the same setting: in the case of `CCOC(=O)c1ccc(CNC(=O)C(c2ccccc2)C2CCN(c3ccc(-n4cnn(C(C)c5ccccc5)c4=O)cc3)CC2)cc1C` (stereo not drawn) [Compound 375] it was 31.6 to 316 nM; in that of `CCOC(=O)c1cc(NC(=O)C(c2ccccc2)N2CCC(c3ccc(-n4cnn(C(C)C)c4=O)cc3)CC2)ccc1C` (stereo not drawn) [Compound 349], less than 31.6 nM; in that of `CCOC(=O)c1ccccc1NC(=O)C(c1ccccc1)N1CCN(c2ccc(-n3cnn(C(C)C)c3=O)cc2)CC1` (stereo not drawn) [Compound 206], 31.6 to 316 nM.

Take `COC(=O)C(c1ccc(Cl)cc1Cl)N1CCC(c2ccc(-n3cnn(C(C)C)c3=O)cc2)CC1` (stereo not drawn) [Compound 322]: the IC50 is 31.6 to 316 nM. On the same count and under the same terms, with `CC(C)NC(=O)C(c1ccccc1)(c1ccccc1)N1CCN(c2ccc(-n3cnn(C(C)C)c3=O)cc2)CC1` [Compound 135] the figure was 316 to 3160 nM. On the same count and under the same terms, in the case of `COC(=O)C(NC(=O)CC1CCN(c2ccc(-n3cnn(C(C)c4ccccc4)c3=O)cc2)CC1)C(C)C` (stereo not drawn) [Compound 401] it was 316 to 3160 nM. Still for that read-out and setting: with `CC(C)CNC(=O)C(c1ccccc1)N1CCN(c2ccc(-n3ncn(C(C)C)c3=O)cc2)CC1` (stereo not drawn) [Compound 119] the figure was 316 to 3160 nM; with `CCCNC(=O)C(c1ccccc1)C1CCN(c2ccc(-n3cnn(C(C)C)c3=O)cc2)CC1` (stereo not drawn) [Compound 99], 31.6 to 316 nM; with `Cc1cc(N2CCN(C(C(=O)Nc3ccc4c(c3)CCC4)c3ccccc3)CC2)ccc1N1CCN(C(C)C)C1=O` (stereo not drawn) [Compound 220], less than 31.6 nM. Turning to `CC(C)n1ncn(-c2ccc(N3CCN(C(C(=O)NCc4c(F)cccc4F)c4ccccc4)CC3)cc2)c1=O` (stereo not drawn) [Compound 79], the IC50 was 316 to 3160 nM. Still for that read-out and setting: in the case of `COC(=O)C(c1ccc(Cl)cc1Cl)N1CCN(c2ccc(-n3cnn(C(C)C)c3=O)cc2)CC1` (stereo not drawn) [Compound 328] it was 31.6 to 316 nM; in that of `CC(C)n1ncn(-c2ccc(N3CCN(C(C(=O)Nc4ccc5c(c4)OCCO5)c4ccccc4)CC3)cc2)c1=O` (stereo not drawn) [Compound 63], 31.6 to 316 nM; in that of `CCOC(=O)c1ccc(CNC(=O)C(Cc2ccccc2)C2CCN(c3ccc(-n4cnn(C(C)C)c4=O)cc3)CC2)cc1C` (stereo not drawn) [Compound 380], 316 to 3160 nM.

The term melting point denotes the temperature of the solid-liquid transition. By IC50 is commonly meant the concentration needed to halve the response being measured.
